Assay results as given in patent US8871753B2, “Macrocyclic compounds and their use as kinase inhibitors” (Incyte Corporation, priority 2008, dated 2014).

Tests used:
[1] = target: T1, human JAK1 (a.a. 837-1142) (Homo sapiens, UniProt P23458); assay: In vitro JAK kinase assay (HTRF, phosphorylation of a biotinylated peptide), JAK1; type: biochemical; conditions: Table D1; read-out: JAK1 IC50
T1 construct: human JAK1 (a.a. 837-1142); His tag (N); made in house; host or cells: insect cells (baculovirus)
T1 sequence (P23458 849-1154): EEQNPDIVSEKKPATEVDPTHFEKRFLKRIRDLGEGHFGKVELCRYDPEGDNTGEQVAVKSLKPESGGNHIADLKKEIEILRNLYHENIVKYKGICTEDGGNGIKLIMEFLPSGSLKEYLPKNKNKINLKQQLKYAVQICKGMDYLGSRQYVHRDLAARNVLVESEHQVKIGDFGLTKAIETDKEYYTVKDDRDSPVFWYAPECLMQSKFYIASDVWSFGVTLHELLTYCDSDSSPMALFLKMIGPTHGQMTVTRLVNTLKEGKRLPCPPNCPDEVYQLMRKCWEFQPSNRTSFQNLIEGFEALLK
Protocol: (§1) The catalytic activity of JAK1, JAK2 or JAK3 was assayed by measuring the phosphorylation of a biotinylated peptide. The phosphorylated peptide was detected by homogenous time resolved fluorescence (HTRF). […] The ATP concentration in the reactions was 90 μM for JAK1, 30 μM for JAK2 and 3 μM for JAK3. Reactions were carried out at room temperature for 1 hr and then stopped with 20 μL 45 mM EDTA, 300 nM SA-APC, 6 nM Eu-Py20 in assay buffer (Perkin Elmer, Boston, Mass.). Binding to the Europium labeled antibody took place for 40 minutes and HTRF signal was measured on a Fusion plate reader (Perkin Elmer, Boston, Mass.).
(§2) The catalytic activity of JAK1, JAK2 or JAK3 was assayed by measuring the phosphorylation of a biotinylated peptide. The phosphorylated peptide was detected by homogenous time resolved fluorescence (HTRF). […] Reactions were carried out at room temperature for 1 hr and then stopped with 20 μL 45 mM EDTA, 300 nM SA-APC, 6 nM Eu-Py20 in assay buffer (Perkin Elmer, Boston, Mass.). Binding to the Europium labeled antibody took place for 40 minutes and HTRF signal was measured on a Fusion plate reader (Perkin Elmer, Boston, Mass.).

[2] = target: T2, human JAK2 (a.a. 828-1132) (Homo sapiens, UniProt O60674); assay: In vitro JAK kinase assay (HTRF, phosphorylation of a biotinylated peptide), JAK2; type: biochemical; conditions: Table D1
T2 construct: JAK2 (a.a. 828-1132); His tag (N); made in house; host or cells: insect cells (baculovirus)
T2 sequence (O60674 828-1132): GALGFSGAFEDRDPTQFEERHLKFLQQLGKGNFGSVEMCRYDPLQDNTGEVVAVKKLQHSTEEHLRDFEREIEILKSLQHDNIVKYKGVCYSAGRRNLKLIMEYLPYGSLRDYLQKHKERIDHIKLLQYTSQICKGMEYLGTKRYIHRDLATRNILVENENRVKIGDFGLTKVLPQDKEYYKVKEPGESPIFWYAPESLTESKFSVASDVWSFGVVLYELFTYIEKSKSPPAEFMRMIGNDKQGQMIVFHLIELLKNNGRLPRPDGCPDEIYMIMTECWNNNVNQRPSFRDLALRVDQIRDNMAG
Protocol: as §1, §2

SMILES | IC50 [1] [nM] | IC50 [2] [nM]
Cn1cncc1C(=O)N1CC[C@@H](CC(=O)Nc2ccc3cc2CCc2cncc(c2)Nc2ncc(Cl)c(n2)N3)C1 [Example D126, N-[6-Chloro-2,4,8,18,22-pentaazatetracyclo[14.3.1.1(3,7).1(9,13)]docosa-1(20),3(22),4,6,9(21),10,12,16,18-nonaen-12-yl]-2-{(3S)-1-[(1-methyl-1H-imidazol-5-yl)carbonyl]pyrrolidin-3-yl}acetamide tris(trifluoroacetate)] | 98 | –
Cc1cc(C(=O)N2CC[C@@H](CC(=O)Nc3ccc4cc3CCc3cncc(c3)Nc3ncc(Cl)c(n3)N4)C2)no1 [Example D124, N-[6-Chloro-2,4,8,18,22-pentaazatetracyclo[14.3.1.1(3,7).1(9,13)]docosa-1(20),3(22),4,6,9(21),10,12,16,18-nonaen-12-yl]-2-{(3S)-1-[(5-methylisoxazol-3-yl)carbonyl]pyrrolidin-3-yl}acetamide bis(trifluoroacetate)] | 16 | –
O=C(C[C@H]1CCCN(c2nc3cccnc3o2)C1)Nc1ccc2cc1CCc1cncc(c1)Nc1ncc(Cl)c(n1)N2 [Example D214, N-[6-Chloro-2,4,8,18,22-pentaazatetracyclo[14.3.1.1(3,7).1(9,13)]docosa-1(20),3(22),4,6,9(21),10,12,16,18-nonaen-12-yl]-2-[(3R)-1-[1,3]oxazolo[5,4-b]pyridin-2-ylpiperidin-3-yl]acetamide tris(trifluoroacetate)] | 12 | > 1000
O=C(C[C@@H]1CCN(C(=O)c2cc[nH]n2)C1)Nc1ccc2cc1CCc1cncc(c1)Nc1ncc(Cl)c(n1)N2 [Example D134, N-[6-Chloro-2,4,8,18,22-pentaazatetracyclo[14.3.1.1(3,7).1(9,13)]docosa-1(20),3(22),4,6,9(21),10,12,16,18-nonaen-12-yl]-2-[(3S)-1-(1H-pyrazol-3-ylcarbonyl)pyrrolidin-3-yl]acetamide bis(trifluoroacetate)] | 44 | 357
O=C(C[C@H]1CCN(C(=O)Nc2ccccc2F)C1)Nc1ccc2cc1CCc1cncc(c1)Nc1ncc(Cl)c(n1)N2 [Example D104, (3R)-3-(2-{[6-Chloro-2,4,8,18,22-pentaazatetracyclo[14.3.1.1(3,7).1(9,13)]docosa-1(20),3(22),4,6,9(21),10,12,16,18-nonaen-12-yl]amino}-2-oxoethyl)-N-(2-fluorophenyl)pyrrolidine-1-carboxamide bis(trifluoroacetate)] | 8.5 | 255
O=C(C[C@H]1CCN(C(=O)Nc2ccccc2)C1)Nc1ccc2cc1CCc1cncc(c1)Nc1ncc(Cl)c(n1)N2 [Example D97, (3R)-3-(2-{[6-Chloro-2,4,8,18,22-pentaazatetracyclo[14.3.1.1(3,7).1(9,13)]docosa-1(20),3(22),4,6,9(21),10,12,16,18-nonaen-12-yl]amino}-2-oxoethyl)-N-phenylpyrrolidine-1-carboxamide bis(trifluoroacetate)] | 3.3 | 84
O=C(C[C@@H]1CCN(C(=O)c2nccs2)C1)Nc1ccc2cc1CCc1cncc(c1)Nc1ncc(Cl)c(n1)N2 [Example D125, N-[6-Chloro-2,4,8,18,22-pentaazatetracyclo[14.3.1.1(3,7).1(9,13)]docosa-1(20),3(22),4,6,9(21),10,12,16,18-nonaen-12-yl]-2-[(3S)-1-(1,3-thiazol-2-ylcarbonyl)pyrrolidin-3-yl]acetamide bis(trifluoroacetate)] | 34 | –
O=C(C[C@@H]1CCN(C(=O)Nc2cccc(F)c2)C1)Nc1ccc2cc1CCc1cncc(c1)Nc1ncc(Cl)c(n1)N2 [Example D119, (3S)-3-(2-{[6-Chloro-2,4,8,18,22-pentaazatetracyclo[14.3.1.1(3,7).1(9,13)]docosa-1(20),3(22),4,6,9(21),10,12,16,18-nonaen-12-yl]amino}-2-oxoethyl)-N-(3-fluorophenyl)pyrrolidine-1-carboxamide bis(trifluoroacetate)] | 10 | 198
O=C(C[C@@H]1CCCN(c2nc3ccccc3s2)C1)Nc1ccc2cc1CCc1cncc(c1)Nc1ncc(Cl)c(n1)N2 [Example D211, 2-[(3S)-1-(1,3-Benzothiazol-2-yl)piperidin-3-yl]-N-[6-chloro-2,4,8,18,22-pentaazatetracyclo[14.3.1.1(3,7).1(9,13)]docosa-1(20),3(22),4,6,9(21),10,12,16,18-nonaen-12-yl]acetamide tris(trifluoroacetate)] | 4.2 | 160
N#Cc1cccc(NC(=O)N2CC[C@H](CC(=O)Nc3ccc4cc3CCc3cncc(c3)Nc3ncc(Cl)c(n3)N4)C2)c1 [Example D99, (3R)-3-(2-{[6-Chloro-2,4,8,18,22-pentaazatetracyclo[14.3.1.1(3,7).1(9,13)]docosa-1(20),3(22),4,6,9(21),10,12,16,18-nonaen-12-yl]amino}-2-oxoethyl)-N-(3-cyanophenyl)pyrrolidine-1-carboxamide bis(trifluoroacetate)] | 15 | 107
O=C1c2ccccc2C(=O)N1CCS(=O)(=O)Nc1ccc2cc1CCc1cncc(c1)Nc1ncc(Cl)c(n1)N2 [Example D210, N-[6-Chloro-2,4,8,18,22-pentaazatetracyclo[14.3.1.1(3,7).1(9,13)]docosa-1(20),3(22),4,6,9(21),10,12,16,18-nonaen-12-yl]-2-(1,3-dioxo-1,3-dihydro-2H-isoindol-2-yl)ethanesulfonamide bis(trifluoroacetate)] | 1 | 14
N#Cc1ccccc1NC(=O)N1CC[C@@H](CC(=O)Nc2ccc3cc2CCc2cncc(c2)Nc2ncc(Cl)c(n2)N3)C1 [Example D116, (3S)-3-(2-{[6-Chloro-2,4,8,18,22-pentaazatetracyclo[14.3.1.1(3,7).1(9,13)]docosa-1(20),3(22),4,6,9(21),10,12,16,18-nonaen-12-yl]amino}-2-oxoethyl)-N-(2-cyanophenyl)pyrrolidine-1-carboxamide bis(trifluoroacetate)] | 23 | 577
O=C(C[C@@H]1CCN(C(=O)c2ccno2)C1)Nc1ccc2cc1CCc1cncc(c1)Nc1ncc(Cl)c(n1)N2 [Example D120, N-[6-Chloro-2,4,8,18,22-pentaazatetracyclo[14.3.1.1(3,7).1(9,13)]docosa-1(20),3(22),4,6,9(21),10,12,16,18-nonaen-12-yl]-2-[(3S)-1-(isoxazol-5-ylcarbonyl)pyrrolidin-3-yl]acetamide bis(trifluoroacetate)] | 20 | 397
Cn1ccc(C(=O)N2CC[C@H](CC(=O)Nc3ccc4cc3CCc3cncc(c3)Nc3ncc(Cl)c(n3)N4)C2)n1 [Example D106, N-[6-Chloro-2,4,8,18,22-pentaazatetracyclo[14.3.1.1(3,7).1(9,13)]docosa-1(20),3(22),4,6,9(21),10,12,16,18-nonaen-12-yl]-2-{(3R)-1-[(1-methyl-1H-pyrazol-3-yl)carbonyl]pyrrolidin-3-yl}acetamide bis(trifluoroacetate)] | 32 | 256
CS(=O)(=O)N1CC[C@@H](CC(=O)Nc2ccc3cc2CCc2cncc(c2)Nc2ncc(Cl)c(n2)N3)C1 [Example D127, N-[6-Chloro-2,4,8,18,22-pentaazatetracyclo[14.3.1.1(3,7).1(9,13)]docosa-1(20),3(22),4,6,9(21),10,12,16,18-nonaen-12-yl]-2-[(3S)-1-(methylsulfonyl)pyrrolidin-3-yl]acetamide bis(trifluoroacetate)] | 12 | 199
O=C(C[C@H]1CCN(C(=O)c2cc[nH]n2)C1)Nc1ccc2cc1CCc1cncc(c1)Nc1ncc(Cl)c(n1)N2 [Example D130, N-[6-Chloro-2,4,8,18,22-pentaazatetracyclo[14.3.1.1(3,7).1(9,13)]docosa-1(20),3(22),4,6,9(21),10,12,16,18-nonaen-12-yl]-2-[(3R)-1-(1H-pyrazol-3-ylcarbonyl)pyrrolidin-3-yl]acetamide bis(trifluoroacetate)] | 23 | –
Cc1oncc1C(=O)N1CC[C@@H](CC(=O)Nc2ccc3cc2CCc2cncc(c2)Nc2ncc(Cl)c(n2)N3)C1 [Example D123, N-[6-Chloro-2,4,8,18,22-pentaazatetracyclo[14.3.1.1(3,7).1(9,13)]docosa-1(20),3(22),4,6,9(21),10,12,16,18-nonaen-12-yl]-2-{(3S)-1-[(5-methylisoxazol-4-yl)carbonyl]pyrrolidin-3-yl}acetamide bis(trifluoroacetate)] | 50 | –
O=C(C[C@@H]1CCCN(c2nc3cccnc3o2)C1)Nc1ccc2cc1CCc1cncc(c1)Nc1ncc(Cl)c(n1)N2 [Example D213, N-[6-Chloro-2,4,8,18,22-pentaazatetracyclo[14.3.1.1(3,7).1(9,13)]docosa-1(20),3(22),4,6,9(21),10,12,16,18-nonaen-12-yl]-2-[(3S)-1-[1,3]oxazolo[5,4-b]pyridin-2-ylpiperidin-3-yl]acetamide tris(trifluoroacetate)] | 11 | –
